Test results taken from US20070197522A1, “Dpp-iv inhibitors” (priority 2004, published 2007).
Counter-ions that a name gives are not always drawn.

biological target: T1, DPP-IV (Homo sapiens, UniProt P27487); assay: Inhibition of DPP-IV peptidase activity, continuous fluorimetric assay (Gly-Pro-AMC cleavage); format: biochemical, human and porcine; settings: inhibition of DPP-IV peptidase activity; 50 pM DPP-IV, 16 μM Gly-Pro-AMC, pH 7.4, 25° C.; values grouped in 3 classes; read-out: IC50
T1 construct: Soluble human DPP-IV lacking the transmembrane anchor (Gly31-Pro766) was expressed in a recombinant YEAST-strain; Pre-Pro-alpha-mating factor leader (secretion fusion) (N, cleaved yes); made in house
Method: Inhibition of DPP-IV peptidase activity was monitored with a continuous fluorimetric assay. This assay is based on the cleavage of the substrate Gly-Pro-AMC (Bachem) by DPP-IV, releasing free AMC. The assay is carried out in 96-well microtiterplates. In a total volume of 100 μL, compounds are preincubated with 50 pM DPP-IV employing a buffer containing 10 mM Hepes, 150 mM NaCl, 0.005% Tween 20 (pH 7.4). […] The final concentration of DMSO is 1%. The inhibitory potential of the compounds were determined.
Soluble human DPP-IV lacking the transmembrane anchor (Gly31-Pro766) was expressed in a recombinant YEAST-strain as Pre-Pro-alpha-mating fusion. The secreted product (rhuDPP-IV-Gly31-Pro766) was purified from fermentation broth (>90% purity).

T1 sequence (P27487 31-766): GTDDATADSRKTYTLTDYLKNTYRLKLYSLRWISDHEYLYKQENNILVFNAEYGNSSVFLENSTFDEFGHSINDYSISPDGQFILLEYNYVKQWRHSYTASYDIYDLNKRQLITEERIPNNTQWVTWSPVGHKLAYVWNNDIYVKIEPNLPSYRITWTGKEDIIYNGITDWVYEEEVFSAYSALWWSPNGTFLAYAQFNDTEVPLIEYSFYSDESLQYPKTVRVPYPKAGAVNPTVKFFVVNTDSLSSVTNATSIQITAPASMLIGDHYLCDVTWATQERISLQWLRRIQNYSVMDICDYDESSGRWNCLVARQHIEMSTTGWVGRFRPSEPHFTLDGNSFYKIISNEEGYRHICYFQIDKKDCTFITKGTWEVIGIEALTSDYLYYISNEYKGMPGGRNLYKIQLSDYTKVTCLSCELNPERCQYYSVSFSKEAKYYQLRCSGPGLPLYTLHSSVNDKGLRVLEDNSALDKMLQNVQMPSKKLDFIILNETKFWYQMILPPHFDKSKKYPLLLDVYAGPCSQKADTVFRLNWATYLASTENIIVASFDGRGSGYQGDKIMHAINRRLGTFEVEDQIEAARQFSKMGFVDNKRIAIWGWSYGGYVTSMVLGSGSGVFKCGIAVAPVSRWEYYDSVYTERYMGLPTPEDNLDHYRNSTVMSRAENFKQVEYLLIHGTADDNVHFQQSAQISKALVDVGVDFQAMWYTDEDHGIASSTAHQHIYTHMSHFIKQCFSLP

| SMILES | IC50 [nM] |
| --- | --- |
| N[C@@H](CC(=O)NCC1OCCc2ccccc21)Cc1ccccc1F (single isomer, unassigned) [Example 67] | 101 to 1000 |
| N[C@@H](CC(=O)NC(Cc1ccccc1)c1ccccc1)Cc1ccccc1F (single isomer, unassigned) [Example 74] | 101 to 1000 |
| N[C@@H](CC(=O)NCC1CCCc2ccccc21)Cc1ccccc1F (single isomer, unassigned) [Example 78] | 101 to 1000 |
| CN(C)C(CNC(=O)C[C@H](N)Cc1ccccc1F)c1ccccc1Cl (single isomer, unassigned) [Example 84] | 101 to 1000 |
| CN(C)C(CNC(=O)C[C@H](N)Cc1ccccc1F)c1ccccc1 (single isomer, unassigned) [Example 85] | 101 to 1000 |
| N[C@@H](CC(=O)NC(CN1CCOCC1)c1ccccc1)Cc1ccccc1F (single isomer, unassigned) [Example 86] | 101 to 1000 |
| N[C@@H](CC(=O)NC(CN1CCCC1)c1ccccc1)Cc1ccccc1F (single isomer, unassigned) [Example 87] | < 100 |
| N[C@@H](CC(=O)NC(CN1CCCC1)c1ccccc1Cl)Cc1ccccc1F (single isomer, unassigned) [Example 90] | < 100 |
| N[C@@H](CC(=O)NC(CN1CCCC1)c1ccccc1)Cc1ccccc1F (single isomer, unassigned) [Example 91] | 101 to 1000 |
| CC(CNC(=O)C[C@H](N)Cc1ccccc1F)c1ccc(Cl)cc1 (single isomer, unassigned) [Example 107] | 101 to 1000 |
| N[C@@H](CC(=O)NC(CN1CCCCC1)c1ccccc1)Cc1ccccc1F (single isomer, unassigned) [Example 109] | 101 to 1000 |
| N[C@@H](CC(=O)NCC(c1ccccc1)N1CCCC1)Cc1ccccc1F (single isomer, unassigned) [Example 131] | 101 to 1000 |
| N[C@@H](CC(=O)NCC(c1ccccc1Cl)N1CCCC1)Cc1ccccc1F (single isomer, unassigned) [Example 132] | 101 to 1000 |
| NC(CC(=O)NCC(c1ccccc1Cl)N1CCCC1)Cc1ccccc1F (single isomer, unassigned) [Example 134] | < 100 |
| NC(CC(=O)NC(CN1CCCC1)c1ccccc1)Cc1ccccc1F (single isomer, unassigned) [Example 135] | < 100 |
| C[S+]([O-])c1ccccc1CNC(=O)C[C@H](N)Cc1ccccc1F (single isomer, unassigned) [Example 137] | 101 to 1000 |
| CC(C)[C@H](NC(=O)C[C@H](N)Cc1cc(F)c(F)cc1F)c1nc(C2CC2)no1 [Example 29, (R)-3-Amino-N—[(S)-1-(3-cyclopropyl-[1,2,4]oxadiazol-5-yl)-2-methyl-propyl]-4-(2,4,5-trifluoro-phenyl)-butyramide. Formic Acid Salt] | < 100 |
| NC(=O)c1cccc(CNC(=O)C[C@H](N)Cc2ccccc2F)c1 [Example 30, 3-{[(3R)-3-Amino-4-(2-fluoro-phenyl)-butyrylamino]-methyl}-benzamide Trifluoroacetate Salt] | 101 to 1000 |
| NC(=O)c1ccc(CNC(=O)C[C@H](N)Cc2ccccc2F)cc1 [Example 31, 4-{[(3R)-3-Amino-4-(2-fluoro-phenyl)-butyrylamino]-methyl}-benzamide.trifluoroacetate Salt] | 101 to 1000 |
| N[C@@H](CC(=O)NCc1cccc(C(=O)NC2CC2)c1)Cc1ccccc1F [Example 32, 3-{[(3R)-3-Amino-4-(2-fluoro-phenyl)-butyrylamino]-methyl}-N-cyclopropyl-benzamide. Trifluoroacetate Salt] | 101 to 1000 |
| N[C@@H](CC(=O)NCc1cccc(C(=O)NCc2ccccc2F)c1)Cc1ccccc1F [Example 33] | 101 to 1000 |
| N[C@@H](CC(=O)NCc1cccc(C(=O)Nc2ccccn2)c1)Cc1ccccc1F [Example 34] | 101 to 1000 |
| N[C@@H](CC(=O)NCc1cccc(C(=O)NCc2ccc(S(N)(=O)=O)cc2)c1)Cc1ccccc1F [Example 35] | 101 to 1000 |
| CN(Cc1ccccc1F)C(=O)C[C@H](N)Cc1ccccc1F [Example 36, (3R)-Amino-N-(2-fluoro-benzyl)-4-(2-fluoro-phenyl)-N-methyl-butyramide Hydrochloride] | 101 to 1000 |

| SMILES | IC50 [nM] |
| --- | --- |
| Cc1ccccc1CN(C)C(=O)C[C@H](N)Cc1ccccc1F [Example 37, 3-Amino-4-(2-fluoro-phenyl)-N-methyl-N-(2-methyl-benzyl)-butyramide Hydrochloride] | 101 to 1000 |
| CSc1ccccc1CN(C)C(=O)C[C@H](N)Cc1ccccc1F [Example 38, 3-Amino-4-(2-fluoro-phenyl)-N-methyl-N-(2-methylsulfanyl-benzyl)-butyramide Hydrochloride] | 101 to 1000 |
| CN(C)CCNC(=O)C[C@H](N)Cc1ccccc1F [Example 39] | 101 to 1000 |
| N[C@@H](CC(=O)NCCc1ccccn1)Cc1ccccc1F [Example 40] | 101 to 1000 |
| N[C@@H](CC(=O)NCc1ccccc1)Cc1ccccc1F [Example 41] | 1000 to 2000 |
| NC(CC(=O)NC1c2ccccc2CC1O)Cc1ccccc1F (stereo not drawn) [Example 43] | 1000 to 2000 |
| N[C@@H](CC(=O)NCc1ccc(Cl)cc1Cl)Cc1ccccc1F [Example 44] | 101 to 1000 |
| NC(CC(=O)NC1CCCc2ccccc21)Cc1ccccc1F (stereo not drawn) [Example 45] | 101 to 1000 |
| N[C@@H](CC(=O)NCc1cc(F)cc(F)c1)Cc1ccccc1F [Example 46] | 101 to 1000 |
| N[C@@H](CC(=O)NC(c1ccccc1)c1ccccc1)Cc1ccccc1F [Example 47] | 101 to 1000 |
| N[C@@H](CC(=O)NCc1ccncc1)Cc1ccccc1F [Example 48] | 101 to 1000 |
| Cc1ccccc1CNC(=O)C[C@H](N)Cc1ccccc1F [Example 49] | 101 to 1000 |
| N[C@@H](CC(=O)NCCc1ccccc1)Cc1ccccc1F [Example 50] | 101 to 1000 |
| N[C@@H](CC(=O)NCc1cc(Cl)ccc1Cl)Cc1ccccc1F [Example 51] | 101 to 1000 |
| N[C@@H](CC(=O)NCc1ccccn1)Cc1ccccc1F [Example 52] | 101 to 1000 |
| N[C@@H](CC(=O)NCc1ccc(Cl)cc1)Cc1ccccc1F [Example 54] | 101 to 1000 |
| N[C@@H](CC(=O)NC1Cc2ccccc2C1)Cc1ccccc1F [Example 55] | 101 to 1000 |
| N[C@@H](CC(=O)NCc1ccc2c(c1)CCO2)Cc1ccccc1F [Example 56] | 101 to 1000 |
| COc1ccc(-c2cc(CNC(=O)C[C@H](N)Cc3ccccc3F)on2)cc1 [Example 57] | 101 to 1000 |
| N[C@@H](CC(=O)NCc1cccnc1)Cc1ccccc1F [Example 58] | 101 to 1000 |
| N[C@@H](CC(=O)NCc1ccc2c(c1)OCCO2)Cc1ccccc1F [Example 61] | 101 to 1000 |
| Cc1cc(CNC(=O)C[C@H](N)Cc2ccccc2F)no1 [Example 62] | 101 to 1000 |
| N[C@@H](CC(=O)NCc1ccc(-n2cccn2)cc1)Cc1ccccc1F [Example 63] | < 100 |
| N[C@@H](CC(=O)NCc1cccc(-c2ccccc2)c1)Cc1ccccc1F [Example 64] | 1000 to 2000 |

| SMILES | IC50 [nM] |
| --- | --- |
| N[C@@H](CC(=O)NCc1cc(F)c(F)c(F)c1)Cc1ccccc1F [Example 65] | 101 to 1000 |
| N[C@@H](CC(=O)NCc1ccc(C(F)(F)F)cc1)Cc1ccccc1F [Example 68] | 101 to 1000 |
| N[C@@H](CC(=O)NCc1ccccc1C(F)(F)F)Cc1ccccc1F [Example 69] | 1000 to 2000 |
| N[C@@H](CC(=O)NCc1cccc(Cl)c1)Cc1ccccc1F [Example 70] | 101 to 1000 |
| N[C@@H](CC(=O)NCc1c(Cl)cccc1Oc1ccccc1)Cc1ccccc1F [Example 71] | 101 to 1000 |
| CC(C)c1ccc(CNC(=O)C[C@H](N)Cc2ccccc2F)cc1 [Example 73] | 101 to 1000 |
| N[C@@H](CC(=O)NCc1ccccc1-c1ccccc1)Cc1ccccc1F [Example 75] | 101 to 1000 |
| NC(CC(=O)NCc1ccc(Oc2ccccc2)cc1)Cc1ccccc1F (stereo not drawn) [Example 76] | 101 to 1000 |
| N[C@@H](CC(=O)NCc1cccc(Oc2ccccc2)c1)Cc1ccccc1F [Example 77] | 101 to 1000 |
| Cc1noc(C)c1CCNC(=O)C[C@H](N)Cc1ccccc1F [Example 80] | 101 to 1000 |
| COc1cccc(CCNC(=O)C[C@H](N)Cc2ccccc2F)c1 [Example 81] | 1000 to 2000 |
| N[C@@H](CC(=O)NCCN1CCCCC1)Cc1ccccc1F [Example 82] | 101 to 1000 |
| N[C@@H](CC(=O)NCCc1cccnc1)Cc1ccccc1F [Example 83] | 101 to 1000 |
| Cc1ccc(C(C)NC(=O)CC(N)Cc2ccccc2F)cc1 (stereo not drawn) [Example 89] | 101 to 1000 |
| N[C@@H](CC(=O)NCCc1ccc(Cl)c(Cl)c1)Cc1ccccc1F [Example 92] | 101 to 1000 |
| C[C@H](CNC(=O)C[C@H](N)Cc1ccccc1F)c1ccccc1 [Example 93] | 1000 to 2000 |
| C[C@@H](CNC(=O)C[C@H](N)Cc1ccccc1F)c1ccccc1 [Example 94] | 101 to 1000 |
| N[C@@H](CC(=O)NCCc1ccc(Cl)cc1)Cc1ccccc1F [Example 95] | 101 to 1000 |
| N[C@@H](CC(=O)NCCc1ccccc1Cl)Cc1ccccc1F [Example 96] | 101 to 1000 |
| COc1ccccc1CCNC(=O)C[C@H](N)Cc1ccccc1F [Example 97] | 1000 to 2000 |
| COc1ccc(CCNC(=O)C[C@H](N)Cc2ccccc2F)cc1 [Example 98] | 1000 to 2000 |
| COc1ccc([C@@H](C)NC(=O)C[C@H](N)Cc2ccccc2F)cc1 [Example 99] | 1000 to 2000 |
| COc1cccc(C(C)NC(=O)CC(N)Cc2ccccc2F)c1 (stereo not drawn) [Example 102] | 1000 to 2000 |
| N[C@@H](CC(=O)NCCc1ccc(S(N)(=O)=O)cc1)Cc1ccccc1F [Example 104] | 101 to 1000 |
